The source of these data is patent US7598253B2, “Reverse-turn mimetics and methods relating thereto” (Myriad Genetics, Inc., priority 1995, dated 2009).

For one assay, the target named is δ opiate receptor (Cavia porcellus, UniProt A0A286XTF2). Briefly: Opiate (δ) binding, [3H]DPDPE competitive radioligand binding. Further details: species or system guinea pig.
The test system of another assay is male ICR mice. Briefly: In vivo mouse tail flick assay (radiant heat). The settings on record: for % Prolong.: 1 minute post-treatment vs 0 time; for tail flick response time, 1 Min. (single animal) / tail flick response time, 1 Min. (Avg.): 1 minute post-treatment; for tail flick response time, 1 Min. (single animal): cut-off 15 seconds; for tail flick response time, 1 Min. (Avg.) / tail flick response time, 0 Time (Avg.): group mean; for tail flick response time, 0 Time (Avg.) / tail flick response time, 0 Time (single animal): pre-treatment.

Another assay deals with μ opiate receptor (Cavia porcellus, UniProt A0ACM8Q262). Briefly: biochemical. The format is binding, guinea pig.
The target in assay [1] is opioid receptor (non-selective). Briefly: Opiate (non-selective) binding, [3H]naloxone. To be noted: [3H]naloxone (1 nM), rat cerebral cortex membranes.
The mark [2] stands for this setting: read-out: inhibition of radioligand binding.
Where [3] appears, read: 10 μg/5 μl ICV, listed as Test Compound.
Where [4] appears, read: 30 μg/5 μl ICV, listed as Test Compound.
[5] abbreviates: reference compounds, [3H]DPDPE bound (2 nM).

“And” between values parts separate entries of the source, which are not always exact repeats. Identical values can stand only once. Like-named read-outs stand apart in the source and are kept apart here. Bounds are passed on as bounds.

Chain of μ opiate receptor (A0ACM8Q262 1-400): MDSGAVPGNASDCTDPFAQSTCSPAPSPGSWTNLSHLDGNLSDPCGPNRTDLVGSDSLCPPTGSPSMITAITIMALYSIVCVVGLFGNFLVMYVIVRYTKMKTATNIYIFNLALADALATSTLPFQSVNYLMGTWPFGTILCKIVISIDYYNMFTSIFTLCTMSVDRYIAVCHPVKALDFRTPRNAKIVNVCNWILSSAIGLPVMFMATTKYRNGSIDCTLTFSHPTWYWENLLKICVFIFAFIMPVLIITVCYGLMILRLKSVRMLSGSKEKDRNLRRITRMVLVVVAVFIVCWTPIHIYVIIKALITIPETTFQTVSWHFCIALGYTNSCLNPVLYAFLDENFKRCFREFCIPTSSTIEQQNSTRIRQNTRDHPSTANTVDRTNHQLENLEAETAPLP
Chain of δ opiate receptor (A0A286XTF2 1-366): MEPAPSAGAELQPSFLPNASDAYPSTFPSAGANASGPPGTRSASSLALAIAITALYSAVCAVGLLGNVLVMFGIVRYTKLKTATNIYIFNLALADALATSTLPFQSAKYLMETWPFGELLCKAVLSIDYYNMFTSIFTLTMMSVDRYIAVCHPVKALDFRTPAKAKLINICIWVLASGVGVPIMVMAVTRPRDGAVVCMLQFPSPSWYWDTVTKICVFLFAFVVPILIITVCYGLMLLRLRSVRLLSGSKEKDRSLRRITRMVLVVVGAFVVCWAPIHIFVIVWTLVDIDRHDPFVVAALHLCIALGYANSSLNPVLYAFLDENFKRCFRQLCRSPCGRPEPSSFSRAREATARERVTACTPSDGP

A word on the IC50: it is the concentration needed to halve the response being measured. The term Ki denotes the dissociation constant of the complex between target and ligand, obtained from inhibition or displacement. What is called inhibition is the share of the control response that was lost under treatment. Take `O=C1CN2C(=O)CCN(CCc3ccc(O)cc3)C2CN1CCc1ccccc1` (centres unmarked) [Compound 5]: the IC50 at δ opiate receptor (read-out: IC50) is 6900 ± 1200 nM; at μ opiate receptor it was 5400 ± 700 nM. Further, the results for the Ki on δ opiate receptor (read-out: Ki) and at μ opiate receptor were 1700 ± 300 nM and 640 ± 80 nM, respectively. Moreover, the inhibition at 10 µM on δ opiate receptor (setting [2]) is 60%; on μ opiate receptor (setting [2]), 64%. In addition, the results for the “% Prolong.” value in the assay on male ICR mice (10 μg/5 μl ICV), in the assay on male ICR mice (30 μg/5 μl ICV) and in the assay on male ICR mice (100 μg/5 μl ICV) were 6%, 63% and 100%, respectively. Also, the “tail flick response time, 1 Min. (single animal)” value is 7.5 seconds (2×) and 6.7 seconds and 6.8 seconds in the assay on male ICR mice (setting [3]); >15 seconds (2×) and 7.2 seconds and 6.3 seconds in the assay on male ICR mice (setting [4]); more than 15 s in the assay with male ICR mice (100 μg/5 μl ICV). The “tail flick response time, 1 Min. (Avg.)” value is recorded as “Avg. 7.1 seconds” in the assay with male ICR mice (10 μg/5 μl ICV), “Avg. > 15 seconds” with male ICR mice (30 μg/5 μl ICV) and “Avg. > 15 seconds” with male ICR mice (100 μg/5 μl ICV). Besides, the “tail flick response time, 0 Time (Avg.)” value is given as “Avg. = 6.7 seconds” in the assay on male ICR mice (10 μg/5 μl ICV), “Avg. = 6.7 seconds” in the assay on male ICR mice (30 μg/5 μl ICV) and “Avg. = 6.5 seconds” with male ICR mice (100 μg/5 μl ICV). The “tail flick response time, 0 Time (single animal)” value in the assay with male ICR mice (setting [3]) was 6.5 s and 7.2 s and 6.9 s and 6.2 s; in the assay on male ICR mice (setting [4]) it was 6.5 s and 6.7 s and 7.2 s and 6.3 s; in the assay on male ICR mice (100 μg/5 μl ICV, listed as Test Compound), 6.5 seconds (2×) and 6.3 seconds and 6.8 seconds. Moreover, in the assay on male ICR mice (ICV, tail flick), the “analgesic potency relative to morphine” value is given as 10%-15%.
Regarding `CCCCCN1C[C@@H]2N(C(=O)OCCc3ccc(O)cc3)CCC(=O)N2[C@@H](CCc2ccccc2)C1=O` [Compound 30], the IC50 in assay [1] came to 27 nM.
Consider `C[C@@H](NC(=O)[C@@H](N)Cc1ccc(O)cc1)C(=O)NCC(=O)N(C)[C@@H](Cc1ccccc1)C(=O)NCCO` [DAMGO, (D-Ala^2, N-methyl-phe^4, gly-ol^5)-enkephalin], for which, at δ opiate receptor, the half-maximal inhibitory concentration (IC50) was found to be 4800 nM and the Ki is 1200 nM. The “Hill Coefficient” value on δ opiate receptor (setting [5]) worked out at 1.08. On μ opiate receptor, the “Hill Coefficient” value was 0.92, the IC50 was determined as 6.5 nM and the Ki turned out to be 0.59 nM.
With `CN1CC[C@]23c4c5ccc(O)c4O[C@H]2[C@@H](O)C=C[C@H]3[C@H]1C5` [Morphine, reference compound], in the assay with male ICR mice (10 μg/5 μl ICV), the “% Prolong.” value was 100%; the “tail flick response time, 1 Min. (single animal)” value was more than 15 s; the “tail flick response time, 1 Min. (Avg.)” value is on record as “Avg. > 15 seconds”; the “tail flick response time, 0 Time (single animal)” value was 7.5 s and 6.3 s and 7.2 s and 6.8 s. Further, the “tail flick response time, 0 Time (Avg.)” value in the assay on male ICR mice (10 μg/5 μl ICV) is “Avg. = 7.0 seconds”.
For `Oc1ccc2c3c1O[C@H]1c4[nH]c5ccccc5c4C[C@@]4(O)[C@@H](C2)N(CC2CC2)CC[C@]314` [Naltrindole], the “Hill Coefficient” value at δ opiate receptor (setting [5]) is reported as 0.53. Further, on μ opiate receptor, the “Hill Coefficient” value is given as 0.98, inhibition was half-maximal at 27 nM (IC50) and affinity was put at a Ki of 2.5 nM.
On to `Oc1ccc2c3c1O[C@H]1c4[nH]c5c(c4C[C@@]4(O)[C@@H](C2)N(CC2CC2)CC[C@]314)C[C@@]1(O)[C@H]2Cc3ccc(O)c4c3[C@@]1(CCN2CC1CC1)[C@H]5O4` [Norbinaltorphimine], for which, at μ opiate receptor, the “Hill Coefficient” value came to 1.13, the IC50 amounted to 280 nM and the Ki was found to be 26 nM.
As a reminder, the Kd is the equilibrium constant for the complex coming apart. As to `C[C@@H](NC(=O)[C@@H](N)Cc1ccc(O)cc1)C(=O)NCC(=O)N(C)[C@@H](Cc1ccccc1)C(=O)NCCO` [[^3H]DAMGO], the Kd on μ opiate receptor (read-out: Kd of radioligand) turned out to be 0.27 nM.
With (D-pen^3, D-pen^5) enkephalin [DPDPE], the results for the “Hill Coefficient” value on δ opiate receptor and at μ opiate receptor were 0.86 and 1.32, respectively.
